Source: ChEMBL document CHEMBL3085727 (J Med Chem, 2013)
Activity calls are given as the source filed them. The calls are words filed in the database; no cut-off is given here.

How the values were obtained:
Mu-type opioid receptor [1] = molecular target: T1, Mu-type opioid receptor (Homo sapiens, UniProt P35372); assay: Agonist activity at mu opioid receptor (unknown origin) expressed in CHO cell membranes assessed as stimulation of [35S]-GTPgammaS binding after 1.5 hrs relative to DAMGO; assay type: functional
Homo sapiens [2] = species on record: Homo sapiens; assay: Selectivity ratio of Ki for delta opioid receptor (unknown origin) to Ki for kappa opioid receptor (unknown origin)
Homo sapiens [3] = species on record: Homo sapiens; assay: Selectivity ratio of Ki for mu opioid receptor (unknown origin) to Ki for kappa opioid receptor (unknown origin)
Homo sapiens [4] = species on record: Homo sapiens; assay: Selectivity ratio of Ki for delta opioid receptor (unknown origin) to Ki for mu opioid receptor (unknown origin)
[5] = molecular target: T2, Kappa-type opioid receptor (Homo sapiens, UniProt P41145); assay: Partial agonist activity at human kappa opioid receptor expressed in CHO cells assessed as stimulation of [35S]-GTPgammaS binding after 3 hrs by liquid scintillation counting analysis; assay type: functional, cell-based
Homo sapiens [6] = species on record: Homo sapiens; assay: Selectivity ratio of Ki for kappa opioid receptor (unknown origin) to Ki for mu opioid receptor (unknown origin)
Homo sapiens [7] = species on record: Homo sapiens; assay: Selectivity ratio of Ki for human kappa opioid receptor to Ki for human mu opioid receptor
Homo sapiens [8] = species on record: Homo sapiens; assay: Selectivity ratio of Ki for human delta opioid receptor to Ki for human mu opioid receptor
Mus musculus [9] = assay: Induction of withdrawal symptoms in chronic morphine-exposed Swiss-Webster mouse assessed as decrease in wet dog shakes at 3 to 30 mg/kg, sc measured over 20 mins; assay type: organism-based; set-up: dose 3-30 mg/kg, route subcutaneous; settings: in vivo
[10] = molecular target: Delta-type opioid receptor (Homo sapiens) (UniProt P41143); assay: Agonist activity at delta opioid receptor (unknown origin) expressed in CHO cell membranes assessed as stimulation of [35S]-GTPgammaS binding after 1.5 hrs relative to SNC80; assay type: functional
Mus musculus [11] = assay: Reduction of morphine-induced antinociceptive activity in sc dosed Swiss-Webster mouse assessed as dose required to antagonize morphine effect by warm-water tail-flick assay; assay type: functional
[12] = molecular target: T2, Kappa-type opioid receptor; assay: Agonist activity at kappa opioid receptor (unknown origin) expressed in CHO cell membranes assessed as stimulation of [35S]-GTPgammaS binding after 1.5 hrs relative to U50488; assay type: functional
Mus musculus [13] = assay: Antinociceptive activity in Swiss-Webster mouse up to 30 mg/kg, sc by warm-water tail-flick assay; assay type: functional, organism-based; set-up: dose 30 mg/kg
Mus musculus [14] = assay: Induction of withdrawal symptoms in chronic morphine-exposed Swiss-Webster mouse assessed as decrease in escape jumps at 3 to 10 mg/kg, sc measured over 20 mins; assay type: organism-based; set-up: dose 3-10 mg/kg, route subcutaneous; settings: in vivo
Mus musculus [15] = assay: Induction of withdrawal symptoms in chronic morphine-exposed Swiss-Webster mouse assessed as decrease in escape jumps at 30 mg/kg, sc measured over 20 mins; assay type: organism-based; set-up: dose 30 mg/kg, route subcutaneous; settings: in vivo
Mu-type opioid receptor [16] = molecular target: T1, Mu-type opioid receptor; assay: Agonist activity at mu opioid receptor (unknown origin) expressed in CHO cell membranes assessed as stimulation of [35S]-GTPgammaS binding at 10 uM after 1.5 hrs relative to DAMGO; assay type: functional
Mus musculus [17] = assay: Induction of withdrawal symptoms in chronic morphine-exposed Swiss-Webster mouse assessed as decrease in wet dog shakes at 1 mg/kg, sc measured over 20 mins; assay type: organism-based; set-up: dose 1 mg/kg, route subcutaneous; settings: in vivo
Mus musculus [18] = assay: Induction of withdrawal symptoms in chronic morphine-exposed Swiss-Webster mouse assessed as decrease in escape jumps at 1 mg/kg, sc measured over 20 mins; assay type: organism-based; set-up: dose 1 mg/kg, route subcutaneous; settings: in vivo
Mus musculus [19] = assay: Induction of withdrawal symptoms in chronic morphine-exposed Swiss-Webster mouse assessed as decrease in escape jumps at 10 to 30 mg/kg, sc measured over 20 mins; assay type: organism-based; set-up: dose 10-30 mg/kg, route subcutaneous; settings: in vivo
Mus musculus [20] = assay: Induction of withdrawal symptoms in chronic morphine-exposed Swiss-Webster mouse assessed as decrease in wet dog shakes at 10 to 30 mg/kg, sc measured over 20 mins; assay type: organism-based; set-up: dose 10-30 mg/kg, route subcutaneous; settings: in vivo
Mus musculus [21] = assay: Induction of withdrawal symptoms in chronic morphine-exposed Swiss-Webster mouse assessed as decrease in wet dog shakes at 3 mg/kg, sc measured over 20 mins; assay type: organism-based; set-up: dose 3 mg/kg, route subcutaneous; settings: in vivo

T1 sequence (P35372 whole entry): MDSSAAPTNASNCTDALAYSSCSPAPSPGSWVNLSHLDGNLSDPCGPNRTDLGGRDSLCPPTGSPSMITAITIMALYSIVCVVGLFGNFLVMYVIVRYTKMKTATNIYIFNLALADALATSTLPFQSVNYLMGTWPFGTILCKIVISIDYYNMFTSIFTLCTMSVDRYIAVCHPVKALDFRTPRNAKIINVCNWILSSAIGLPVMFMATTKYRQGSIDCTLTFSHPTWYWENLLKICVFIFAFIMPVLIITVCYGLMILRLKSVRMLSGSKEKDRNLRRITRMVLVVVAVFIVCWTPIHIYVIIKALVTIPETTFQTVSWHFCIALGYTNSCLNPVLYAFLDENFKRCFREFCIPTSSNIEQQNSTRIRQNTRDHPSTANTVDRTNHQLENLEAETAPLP
Delta-type opioid receptor (Homo sapiens), sequence (P41143 whole entry): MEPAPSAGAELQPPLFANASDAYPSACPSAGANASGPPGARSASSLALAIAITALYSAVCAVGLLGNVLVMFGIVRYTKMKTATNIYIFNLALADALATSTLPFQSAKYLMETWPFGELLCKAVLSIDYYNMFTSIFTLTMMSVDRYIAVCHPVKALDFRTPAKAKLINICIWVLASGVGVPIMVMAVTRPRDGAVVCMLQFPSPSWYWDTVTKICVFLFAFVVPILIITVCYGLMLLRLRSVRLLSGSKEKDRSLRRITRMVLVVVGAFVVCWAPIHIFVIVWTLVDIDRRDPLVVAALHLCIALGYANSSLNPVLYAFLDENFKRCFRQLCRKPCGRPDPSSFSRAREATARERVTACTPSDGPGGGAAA
T2 sequence (P41145 whole entry): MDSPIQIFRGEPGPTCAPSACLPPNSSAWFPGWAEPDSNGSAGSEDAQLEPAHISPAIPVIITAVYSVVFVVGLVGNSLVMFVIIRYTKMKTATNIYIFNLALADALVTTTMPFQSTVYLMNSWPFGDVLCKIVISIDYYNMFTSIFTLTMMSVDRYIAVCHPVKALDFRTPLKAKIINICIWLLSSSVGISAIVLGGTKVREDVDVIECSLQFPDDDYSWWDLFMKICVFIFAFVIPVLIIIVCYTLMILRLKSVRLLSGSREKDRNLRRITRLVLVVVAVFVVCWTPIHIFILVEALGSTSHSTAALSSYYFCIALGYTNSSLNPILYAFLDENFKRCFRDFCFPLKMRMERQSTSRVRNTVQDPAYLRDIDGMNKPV

SMILES | Emax (Mu-type opioid receptor [1]) [%] | Ratio Ki (Homo sapiens [2]) | Ratio Ki (Homo sapiens [3]) | Ratio Ki (Homo sapiens [4]) | Ratio Ki (Homo sapiens [6]) | also measured
O=C(N[C@@]12CCC(=O)[C@@H]3Oc4c(O)ccc5c4[C@@]31CCN(CC1CC1)[C@@H]2C5)c1cnc2ccccc2c1 | 15.8 | 11 | 8.7 | 1.3 |  | 
Oc1cccc2c1O[C@H]1CCC[C@H]3CN(CC4CC4)CC[C@@]231 |  |  |  |  |  | EC50 [5]: 2.7 nM
O=C(Cc1ccccn1)N[C@@]12CCC(=O)[C@@H]3Oc4c(O)ccc5c4[C@@]31CCN(CC1CC1)[C@@H]2C5 | 78 | 21 | 1.5 | 14 |  | 
COc1cccc2c1[C@]13CCN(CC4CC4)[C@H](C2)[C@]1(OC)CCC(=O)C3 [CYPRODIME] |  |  |  | 39 | 10 | 
Cc1ccc(/C=C/C(=O)N[C@@]23CCC(=O)[C@@H]4Oc5c(O)ccc6c5[C@@]42CCN(CC2CC2)[C@@H]3C6)cc1 |  |  |  |  |  | Ratio Ki (Homo sapiens [7]): 3; Ratio Ki (Homo sapiens [8]): 1
O=C(O[C@@]12CCC(=O)[C@@H]3Oc4c(O)ccc5c4[C@@]31CCN(CC1CC1)[C@@H]2C5)c1ccncc1 |  | 8.2 |  | 73 | 8.8 | 
Cl.O=C(N[C@@]12CCC(=O)[C@@H]3Oc4c(O)ccc5c4[C@@]31CCN(CC1CC1)[C@@H]2C5)c1cc2ccccc2cn1 |  | 93 | 13 | 7.2 |  | Activity (Mus musculus [9]): Toxic; Emax [10]: 23.8%; Activity (Mus musculus [11]): 0.87 mg/kg; Emax [12]: 16.8%; Activity (Mus musculus [13]): inactive; Activity (Mus musculus [14]): Non-toxic; Activity (Mus musculus [15]): Toxic; Emax (Mu-type opioid receptor [16]): 2.8%
O=C(O[C@@]12CCC(=O)[C@@H]3Oc4c(O)ccc5c4[C@@]31CCN(CC1CC1)[C@@H]2C5)c1cnc2ccccc2c1 | 22 | 5.5 |  | 304 | 55 | 
O=C(O[C@@]12CCC(=O)[C@@H]3Oc4c(O)ccc5c4[C@@]31CCN(CC1CC1)[C@@H]2C5)c1ccccn1 |  | 4.6 |  | 838 | 182 | 
O=C(O[C@@]12CCC(=O)[C@@H]3Oc4c(O)ccc5c4[C@@]31CCN(CC1CC1)[C@@H]2C5)c1ccc2ccccc2n1 |  | 0.34 |  | 16 | 47 | 
O=C(N[C@@]12CCC(=O)[C@@H]3Oc4c(O)ccc5c4[C@@]31CCN(CC1CC1)[C@@H]2C5)c1ccc2ccccc2c1 | 16.5 | 32 | 19 | 1.7 |  | 
O=C(O[C@@]12CCC(=O)[C@@H]3Oc4c(O)ccc5c4[C@@]31CCN(CC1CC1)[C@@H]2C5)c1ccc2ccccc2c1 |  | 19 |  | 4 | 0.21 | 
O=C1CC[C@@]2(O)[C@H]3Cc4ccc(O)c5c4[C@@]2(CCN3CC2CC2)[C@H]1O5 [NALTREXONE] |  |  |  |  |  | Activity (Mus musculus [17]): Toxic; Activity (Mus musculus [18]): Toxic
O=C(CCc1ccccn1)N[C@@]12CCC(=O)[C@@H]3Oc4c(O)ccc5c4[C@@]31CCN(CC1CC1)[C@@H]2C5 | 12.7 | 54 | 1.9 | 29 |  | 
O=C(O[C@@]12CCC(=O)[C@@H]3Oc4c(O)ccc5c4[C@@]31CCN(CC1CC1)[C@@H]2C5)c1cccnc1 |  | 3.6 |  | 107 | 30 | 
O=C(CNC(=O)c1ccccn1)N[C@@]12CCC(=O)[C@@H]3Oc4c(O)ccc5c4[C@@]31CCN(CC1CC1)[C@@H]2C5 | 11.8 | 2.6 | 2.1 | 1.2 |  | 
C=CCN1CC[C@]23c4c5ccc(O)c4O[C@H]2C(=O)CC[C@@]3(O)[C@H]1C5 [NALOXONE] |  |  |  |  |  | Activity (Mus musculus [17]): Toxic; Activity (Mus musculus [18]): Toxic
Cc1ccc(/C=C/C(=O)O[C@@]23CCC(=O)[C@@H]4Oc5c(O)ccc6c5[C@@]42CCN(CC2CC2)[C@@H]3C6)cc1 |  |  |  |  |  | Ratio Ki (Homo sapiens [7]): 15; Ratio Ki (Homo sapiens [8]): 31
Cl.O=C(N[C@@]12CCC(=O)[C@@H]3Oc4c(O)ccc5c4[C@@]31CCN(CC1CC1)[C@@H]2C5)c1cccnc1 |  | 249 | 4.7 | 53 |  | Activity (Mus musculus [19]): Toxic; Emax [10]: 10.3%; Activity (Mus musculus [11]): 0.55 mg/kg; Emax [12]: 35.3%; Activity (Mus musculus [13]): inactive; Activity (Mus musculus [20]): Toxic; Emax (Mu-type opioid receptor [16]): 5.1%
Cl.O=C(N[C@@]12CCC(=O)[C@@H]3Oc4c(O)ccc5c4[C@@]31CCN(CC1CC1)[C@@H]2C5)c1ccccn1 |  | 263 | 4.2 | 63 |  | Activity (Mus musculus [21]): Non-toxic; Emax [10]: 8.6%; Activity (Mus musculus [11]): 0.25 mg/kg; Emax [12]: 24.9%; Activity (Mus musculus [13]): inactive; Activity (Mus musculus [14]): Non-toxic; Activity (Mus musculus [15]): Toxic; Activity (Mus musculus [20]): Toxic; Emax (Mu-type opioid receptor [16]): 0.9%
O=C(N[C@@]12CCC(=O)[C@@H]3Oc4c(O)ccc5c4[C@@]31CCN(CC1CC1)[C@@H]2C5)c1ccncc1 | 7.7 | 33 | 2.5 | 13 |  | 
O=C(O[C@@]12CCC(=O)[C@@H]3Oc4c(O)ccc5c4[C@@]31CCN(CC1CC1)[C@@H]2C5)c1ccccc1 |  | > 17 |  |  | 4.7 | 
O=C(N[C@@]12CCC(=O)[C@@H]3Oc4c(O)ccc5c4[C@@]31CCN(CC1CC1)[C@@H]2C5)c1ccccc1 | 5.8 | 477 | 36 | 13 |  | 
O=C(N[C@@]12CCC(=O)[C@@H]3Oc4c(O)ccc5c4[C@@]31CCN(CC1CC1)[C@@H]2C5)c1ccc2ccccc2n1 | 34.4 | 58 | 35 | 1.7 |  | 
